Molecules are shown by their SMILES. Values joined by “and” are separate entries in the source; they are usually repeats but may differ in a detail not shown here. Equal entries are not always repeated.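 Interpolation was linear, between the two tested concentrations surrounding the appropriate level; five concentrations were tested over 48 hours in 96-well plates. Here, GI50 denotes the concentration required for 50% inhibition of growth. TGI: concentration producing complete growth inhibition.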 Bounds are passed on as bounds.

Data on eleven compounds can be found in PubChem BioAssay (NCI).

Test in all cases: NCI tumour cell line growth inhibition, 48 h
Experiment [1] has as its system ACHN renal.
Experiment [2] concerns CAKI-1 renal.
Experiment [3] has as its system DU-145 prostate.
The test system of experiment [4] is EKVX NSCLC.
In experiment [5] the test system is M14 melanoma.
Experiment [6] has as its system MCF7 breast.
The test system of experiment [7] is MOLT-4 leukemia.
In experiment [8] the test system is NCI-H23 lung.
Experiment [9] concerns RPMI-8226 leukemia.
Experiment [10] concerns RXF 393 renal.

`COc1cc2ncn(-c3cc(OCCc4ccccc4)c(C(N)=O)s3)c2cc1OC`: the GI50 is over 25 µM in [1]; over 25 µM in experiment [2]; over 23.2 µM in [3]; over 25 µM in [4]; over 25 µM in experiment [5]; 10.1 µM in [6]. Besides, the GI50 was 12.4 µM in [7], over 25 µM in experiment [8], over 25 µM in experiment [9] and 9.53 µM in experiment [10]. Also, the TGI in experiment [1], in [2], in experiment [3], in [4], in experiment [5] and in [6] was over 25 µM in each case. The TGI in experiment [7], in [8], in [9] and in experiment [10] was over 25 µM each time.

Regarding `CCOC(=O)CNC(=O)c1ccccc1Nc1ccnc(C(F)(F)F)c1`, the GI50 in [1] was over 58.2 µM; in experiment [2] it was 20.9 µM; in experiment [3], 46.9 µM; in experiment [4], 30.6 µM; in [5] it was 38.1 µM; in [6] it was 38.8 µM. Further, the GI50 in experiment [7] was 17.7 µM; in experiment [8], 31.5 µM; in experiment [9], 12.7 µM; in [10], 31.3 µM. In addition, the TGI in experiment [1] was over 100 µM; in experiment [2], over 62.5 µM; in experiment [3] it was 99.8 µM; in experiment [4], over 96 µM; in [5], over 74.9 µM; in [6] it was over 89.1 µM. Also, the TGI in experiment [7] is 54.3 µM; in experiment [8] it was over 71.8 µM; in [9], 35.1 µM; in [10], over 64.4 µM.

In the case of `COc1ccc2c(c1)C(C)Cc1c(ncnc1-n1c(C)nc3ccccc31)N2C` (stereo unspecified), the GI50 in [1] is 6.56 µM; in [2], 4.48 µM; in experiment [3], 3.27 µM; in experiment [4] it was 3.94 µM; in [5] it was 2.62 µM; in experiment [6] it was 1.88 µM. Besides, the GI50 is 2.39 µM in experiment [7], 3.08 µM in experiment [8], 3.96 µM in experiment [9] and 2.83 µM in experiment [10]. Further, the TGI worked out at 23.1 µM in [1]; 78.8 µM in [2]; 13.4 µM in experiment [3]; 21.8 µM in experiment [4]; 15.4 µM in experiment [5]; 19.9 µM in [6]. Besides, the TGI in experiment [7] came to 12.5 µM; in [8], 18.5 µM; in experiment [9], 24.3 µM; in experiment [10], 9.21 µM.

Consider `NC(CS/C(Cl)=C/Cl)C(=O)O` (stereo unspecified), for which the GI50 in [1] was 78.9 µM; in experiment [2], 72.5 µM; in experiment [3], 16.5 µM; in [4] it was 31.7 µM; in [5], 8.19 µM; in experiment [6], 4.03 µM. The GI50 is 41.9 µM in experiment [7], 56.5 µM in experiment [8], 12.5 µM in [9] and over 44.6 µM in [10]. Also, the TGI is over 100 µM in experiment [1]; over 100 µM in experiment [2]; over 100 µM in experiment [3]; over 100 µM in experiment [4]; over 68.3 µM in experiment [5]; over 100 µM in experiment [6]. Moreover, the TGI is over 100 µM in experiment [7], over 100 µM in [8], 74.5 µM in [9] and over 87.2 µM in experiment [10].

Regarding `CC1CCC(=O)C(C(=O)CC2CC(=O)NC(=O)C2)C1` (stereo unspecified), the TGI in experiment [1], in [2], in [3], in [4], in experiment [5] and in experiment [6] was over 100 µM in each case. Besides, the TGI in experiment [7], in experiment [8], in [9] and in experiment [10] was over 100 µM each time.

As for `COc1cccc(/C(COc2ccc3c(c2)oc(=O)c2cc(OC)ccc23)=N/O)c1`, the GI50 was 3.64 µM in experiment [1]; 6.7 µM in [2]; 26 µM in [3]; 16.1 µM in [4]; 3.62 µM in experiment [5]; 4.02 µM in experiment [6]. Also, the GI50 in experiment [7] is 5.61 µM; in experiment [8], 33.4 µM; in experiment [9], 4.76 µM; in [10], over 100 µM. Besides, the TGI in experiment [1], in [2], in experiment [3], in experiment [4], in experiment [5] and in experiment [6] was over 100 µM each time. For the same compound, the TGI in experiment [7], in experiment [8], in experiment [9] and in experiment [10] was over 100 µM throughout.

On to `CCC(C)(C)c1ccc(OCCCCCCN2CCNCC2)cc1`, for which the GI50 in [1] was 2.19 µM; in experiment [2], 2.26 µM; in experiment [3], 2.39 µM; in experiment [4] it was 9.73 µM; in experiment [5], 1.92 µM; in [6] it was 1.56 µM. The GI50 in experiment [7] is 2.03 µM; in [8], 2.85 µM; in [9], 1.9 µM; in [10] it was 1.47 µM. In addition, the TGI in experiment [1] is 5.45 µM; in [2] it was 7.09 µM; in experiment [3], 6.06 µM; in experiment [4], 27.1 µM; in experiment [5], 4.17 µM; in experiment [6], 3.2 µM. Besides, the TGI in experiment [7] was found to be 5.11 µM; in experiment [8], 8.36 µM; in [9] it was 4.41 µM; in experiment [10], 2.92 µM.

Turning to `COc1cc(CNc2ccc(SC)cc2)cc(OC)c1OC`, the GI50 was 22.8 µM and 11 µM in experiment [1]; 22.5 µM and 11.1 µM in [2]; 24.8 µM and 7.82 µM in experiment [3]; 5.28 µM in experiment [5]; 14.6 µM and 6.14 µM in experiment [8]; 2.27 µM and 6.5 µM in [10]. For the same compound, the TGI in experiment [1] was over 100 µM; in experiment [2], over 97.1 µM; in experiment [3], over 95.7 µM; in experiment [4] it was over 100 µM; in experiment [5], > 47 µM and 37.9 µM; in experiment [6], over 100 µM. Also, the TGI in [7] is over 100 µM; in [8] it was 44 µM and 46.7 µM; in [9], > 78.3 µM and 66.2 µM; in experiment [10] it was 39.6 µM and 42.7 µM.

Consider `CCOC(=O)c1c[nH]c2oc(/C=N/N3CC(CN4CCOCC4)OC3=O)cc2c1=O` (stereo unspecified), for which the TGI in experiment [1], in experiment [2], in [3], in experiment [4], in [5] and in experiment [6] was over 100 µM throughout. For the same compound, the TGI in experiment [7], in [8], in [9] and in experiment [10] was over 100 µM in each case.

For `O=C(Nc1ccc(CO)cc1)c1coc2ccccc2c1=O`, the GI50 in experiment [1], in [2], in experiment [3], in experiment [4], in [5] and in experiment [6] was over 100 µM each time. In addition, the GI50 in experiment [7] was over 100 µM; in experiment [8], over 100 µM; in experiment [9] it was 84.8 µM; in experiment [10] it was over 100 µM. The TGI in experiment [1], in [2], in experiment [3], in experiment [4], in experiment [5] and in [6] was over 100 µM in each case. Moreover, the TGI in experiment [7], in [8], in [9] and in experiment [10] was over 100 µM throughout.

Consider `O=C(CSC(c1ccccc1)c1ccccc1)N/N=C/c1ccc(Cl)cc1Cl`, for which the GI50 was 26.6 µM in experiment [1]; 38.3 µM in experiment [2]; 32.9 µM in experiment [3]; 43.6 µM in experiment [4]; 29.2 µM in experiment [5]; 7.82 µM in experiment [6]. Further, the GI50 was 19.6 µM in [7], 21.4 µM in [8], 15.6 µM in experiment [9] and 34.4 µM in experiment [10]. The TGI in [1] is 66.3 µM; in experiment [2], 83 µM; in [3], 93.5 µM; in experiment [4], over 100 µM; in [5] it was 87.2 µM; in experiment [6] it was 29.2 µM. Further, the TGI in [7] is 68.1 µM; in experiment [8], 56.9 µM; in experiment [9], 41.8 µM; in experiment [10], 89.1 µM.
